According to the NIST ThermoML archive (doi:10.1016/j.jct.2015.01.005):

Assay: molar heat capacity at saturation pressure
Details: Crystal 2, Small (less than 1 g) adiabatic calorimetry

O[C@@H]1[C@@H](O)[C@@H]2OC[C@@H](O2)[C@H]1O [1,6-anhydro-β-D-glucopyranose]
Details	molar heat capacity [J/K/mol]
5.26 K	0.1543
5.62 K	0.1754
5.93 K	0.2008
6.31 K	0.2396
6.75 K	0.2955
7.19 K	0.3641
7.65 K	0.4465
8.1 K	0.5445
8.57 K	0.6608
9.04 K	0.7922
9.51 K	0.9407
9.99 K	1.112
10.53 K	1.33
11.15 K	1.603
11.77 K	1.9
12.4 K	2.236
13.05 K	2.607
13.7 K	3.009
14.35 K	3.44
15.01 K	3.908
15.78 K	4.473
16.65 K	5.151
17.53 K	5.868
18.42 K	6.609
19.31 K	7.372
20.21 K	8.174
21.39 K	9.247
22.86 K	10.63
24.35 K	12.04
25.84 K	13.46
27.08 K	14.64
28.51 K	16.01
30.04 K	17.43
31.72 K	19.01
33.56 K	20.71
35.41 K	22.39
37.27 K	24
39.13 K	25.62
41.1 K	27.29
43.17 K	29.02
45.24 K	30.72
47.32 K	32.39
49.4 K	34.01
51.49 K	35.61
53.58 K	37.22
55.67 K	38.75
57.78 K	40.27
59.89 K	41.77
62 K	43.24
64.11 K	44.7
66.22 K	46.15
68.34 K	47.58
70.46 K	49
72.68 K	50.47
75.01 K	51.98
77.35 K	53.49
78.72 K	54.4
79.68 K	54.97
80.68 K	55.63
80.76 K	55.68
82.03 K	56.47
82.6 K	56.8
82.68 K	56.86
84.52 K	57.99
84.6 K	58.06
86.44 K	59.2
86.52 K	59.23
88.37 K	60.4
88.45 K	60.45
90.29 K	61.6
90.37 K	61.65
92.23 K	62.79
92.3 K	62.82
94.16 K	63.97
94.23 K	64.01
96.1 K	65.16
96.17 K	65.21
98.04 K	66.35
98.11 K	66.41
99.98 K	67.6
100.05 K	67.69
101.92 K	69.02
101.99 K	69.12
103.87 K	70.46
103.93 K	70.5
105.82 K	71.75
105.88 K	71.76
107.77 K	72.94
107.83 K	72.96
109.73 K	74.07
109.79 K	74.13
111.69 K	75.2
111.75 K	75.25
113.65 K	76.35
113.71 K	76.37
115.61 K	77.45
115.67 K	77.49
117.58 K	78.55
117.64 K	78.6
119.55 K	79.66
119.61 K	79.69
121.58 K	80.81
123.55 K	81.91
125.53 K	83.02
127.51 K	84.1
129.49 K	85.22
131.47 K	86.32
133.45 K	87.41
135.44 K	88.53
137.43 K	89.66
139.41 K	90.74
141.41 K	91.84
143.4 K	92.95
145.4 K	94.05
147.39 K	95.15
149.39 K	96.28
151.39 K	97.39
153.39 K	98.5
155.4 K	99.63
157.4 K	100.7
159.41 K	101.8
161.42 K	103
163.43 K	104.1
165.44 K	105.2
167.46 K	106.4
169.47 K	107.5
171.49 K	108.6
173.51 K	109.8
175.53 K	110.9
177.54 K	112
179.56 K	113.2
181.59 K	114.4
183.61 K	115.5
185.63 K	116.7
187.66 K	117.8
189.68 K	119
191.71 K	120.2
193.74 K	121.4
